Data as given in patent US11534457B2, “Use of dextran sulfate” (priority 2017, dated 2022).
Marks after values point to notes of the source that are not given here.

How the values were obtained:
[1] = test system: BF4T system [bronchial epithelial cells and HDFn+(TNFα and IL-4)]; test: BioMAP BF4T system; assay type: cell-based, Human
Text: In this study LMW-DS was characterized by profiling in the BioMAP® Diversity PLUS panel. The BioMAP® panel consists of human primary cell-based systems designed to model different aspects of the human body in an in vitro format. The 12 systems in the BioMAP® Diversity PLUS panel (Table 32) allow test agent characterization in an unbiased way across a broad set of systems modeling various human disease states. The BioMA®P systems are constructed with one or more primary cell types from healthy human donors, with stimuli, such as cytokines or growth factors, added to capture relevant signaling networks that naturally occur in human tissue or pathological conditions. […]
Systems are derived from either single cell types or co-culture systems. […] Test agents prepared in either DMSO (small molecules; final concentration 0.1%) or PBS (biologics) are added at the indicated concentrations 1-hr before stimulation, and remain in culture for 24-hrs or as otherwise indicated (48-hrs, MyoF system; 72-hrs, BT system (soluble readouts); 168-hrs, BT system (secreted IgG)). […] Soluble factors from supernatants are quantified using either HTRF® detection, bead-based multiplex immunoassay or capture ELISA. Overt adverse effects of test agents on cell proliferation and viability (cytotoxicity) are detected by sulforhodamine B (SRB) staining, for adherent cells, and alamarBlue® reduction for cells in suspension. […]

[2] = test system: severe traumatic brain injury (sTBI); test: sTBI in rats, HPLC of free amino acids and amino group containing compounds in brain (Example 3); assay type: in vivo, Male Wistar rats
[3] = Acute phase 1: 15 mg/kg s.c. 30 min post-sTBI, sacrifice 2 days
[4] = Acute phase 2: 15 mg/kg s.c. 30 min post-sTBI, sacrifice 7 days
[5] = Chronic phase: 15 mg/kg s.c. 3 days post-sTBI, sacrifice 7 days

## low molecular weight dextran sulfate [LMW-DS]
[1]; BF4T system
  Increased biomarker activity: Eot3
[1]; lower concentrations only
  Eotaxin-3: Modestly increased
[2]; 15 mg/kg s.c.
  compounds of the methyl cycle (Met, L-Cystat, SAH): significant beneficial effects
[2]; 15 mg/kg s.c. 30 min after sTBI
  sTBI-induced increase in brain glutamate (GLU): remarkable inhibition
[2]; 15 mg/kg s.c. injected 3 days after sTBI
  brain glutamate (excitotoxicity marker): no efficacy
[2]; [3]
  ALA, cerebral concentration: 0.50 ± 0.12^a μmol/g (w.w.)
  ARG, cerebral concentration: 0.13 ± 0.02^b,d μmol/g (w.w.)
  ASN, cerebral concentration: 0.12 ± 0.02^i μmol/g (w.w.)
  ASP, cerebral concentration: 2.40 ± 0.56^d,i μmol/g (w.w.)
  CITR, cerebral concentration: 0.018 ± 0.004 µmol/g (w.w.)
  GABA, cerebral concentration: 1.43 ± 0.25^a μmol/g (w.w.)
  GLN, cerebral concentration: 4.78 ± 1.09^a μmol/g (w.w.)
  GLU, cerebral concentration: 9.81 ± 1.66^i μmol/g (w.w.)
  GLY, cerebral concentration: 0.83 ± 0.25^a,c μmol/g (w.w.)
  HIS, cerebral concentration: 0.068 ± 0.015^b μmol/g (w.w.)
  ILE, cerebral concentration: 0.038 ± 0.007 µmol/g (w.w.)
  L-Cystat, cerebral concentration: 0.185 ± 0.031^b,c,i μmol/g (w.w.)
  LEU, cerebral concentration: 0.021 ± 0.005^a,c μmol/g (w.w.)
  LYS, cerebral concentration: 0.236 ± 0.057^b,d,h μmol/g (w.w.)
  MET, cerebral concentration: 0.016 ± 0.005^d,j μmol/g (w.w.)
  ORN, cerebral concentration: 0.014 ± 0.007 µmol/g (w.w.)
  PHE, cerebral concentration: 0.031 ± 0.011^b,d μmol/g (w.w.)
  SAH, cerebral concentration: 0.033 ± 0.008^b,c,j μmol/g (w.w.)
  SER, cerebral concentration: 0.88 ± 0.25^a μmol/g (w.w.)
  TAU, cerebral concentration: 4.86 ± 0.85^b μmol/g (w.w.)
  THR, cerebral concentration: 0.92 ± 0.29^a μmol/g (w.w.)
  TRP, cerebral concentration: 0.030 ± 0.007^b,dg,i μmol/g (w.w.)
  TYR, cerebral concentration: 0.15 ± 0.03 µmol/g (w.w.)
  VAL, cerebral concentration: 0.042 ± 0.011 µmol/g (w.w.)
[2]; [4]
  ALA, cerebral concentration: 0.52 ± 0.24^a,e μmol/g (w.w.)
  ARG, cerebral concentration: 0.16 ± 0.03 µmol/g (w.w.)
  ASN, cerebral concentration: 0.13 ± 0.03^i μmol/g (w.w.)
  ASP, cerebral concentration: 2.94 ± 0.98^f,j μmol/g (w.w.)
  CITR, cerebral concentration: 0.018 ± 0.008 µmol/g (w.w.)
  GABA, cerebral concentration: 1.60 ± 0.24^a μmol/g (w.w.)
  GLN, cerebral concentration: 3.66 ± 0.41 µmol/g (w.w.)
  GLU, cerebral concentration: 9.93 ± 1.56^e,i μmol/g (w.w.)
  GLY, cerebral concentration: 0.71 ± 0.16^f,i μmol/g (w.w.)
  HIS, cerebral concentration: 0.055 ± 0.019 µmol/g (w.w.)
  ILE, cerebral concentration: 0.048 ± 0.017^a μmol/g (w.w.)
  L-Cystat, cerebral concentration: 0.173 ± 0.038^b,f,i μmol/g (w.w.)
  LEU, cerebral concentration: 0.018 ± 0.004 µmol/g (w.w.)
  LYS, cerebral concentration: 0.32 ± 0.04^a,e,i μmol/g (w.w.)
  MET, cerebral concentration: 0.022 ± 0.006^b,e,i μmol/g (w.w.)
  ORN, cerebral concentration: 0.011 ± 0.005 µmol/g (w.w.)
  PHE, cerebral concentration: 0.028 ± 0.010 µmol/g (w.w.)
  SAH, cerebral concentration: 0.026 ± 0.010^f,i μmol/g (w.w.)
  SER, cerebral concentration: 0.71 ± 0.28^b μmol/g (w.w.)
  TAU, cerebral concentration: 3.80 ± 1.19 µmol/g (w.w.)
  THR, cerebral concentration: 0.66 ± 0.23 µmol/g (w.w.)
  TRP, cerebral concentration: 0.015 ± 0.006 µmol/g (w.w.)
  TYR, cerebral concentration: 0.172 ± 0.046^b,f μmol/g (w.w.)
  VAL, cerebral concentration: 0.057 ± 0.017 µmol/g (w.w.)
[2]; [5]
  ALA, cerebral concentration: 0.57 ± 0.28^a,e μmol/g (w.w.)
  ARG, cerebral concentration: 0.14 ± 0.02 µmol/g (w.w.)
  ASN, cerebral concentration: 0.18 ± 0.02^a μmol/g (w.w.)
  ASP, cerebral concentration: 4.46 ± 0.70^a,f μmol/g (w.w.)
  CITR, cerebral concentration: 0.020 ± 0.006 µmol/g (w.w.)
  GABA, cerebral concentration: 1.85 ± 0.65^a μmol/g (w.w.)
  GLN, cerebral concentration: 3.98 ± 0.34 µmol/g (w.w.)
  GLU, cerebral concentration: 13.58 ± 1.28^a μmol/g (w.w.)
  GLY, cerebral concentration: 1.05 ± 0.13^a,f μmol/g (w.w.)
  HIS, cerebral concentration: 0.047 ± 0.021 µmol/g (w.w.)
  ILE, cerebral concentration: 0.041 ± 0.016^b μmol/g (w.w.)
  L-Cystat, cerebral concentration: 0.26 ± 0.05^a,f μmol/g (w.w.)
  LEU, cerebral concentration: 0.024 ± 0.032^b,f μmol/g (w.w.)
  LYS, cerebral concentration: 0.179 ± 0.036 µmol/g (w.w.)
  MET, cerebral concentration: 0.009 ± 0.004^b μmol/g (w.w.)
  ORN, cerebral concentration: 0.017 ± 0.009^a,e μmol/g (w.w.)
  PHE, cerebral concentration: 0.033 ± 0.011^b μmol/g (w.w.)
  SAH, cerebral concentration: 0.050 ± 0.013^a μmol/g (w.w.)
  SER, cerebral concentration: 0.93 ± 0.27^a,e μmol/g (w.w.)
  TAU, cerebral concentration: 4.49 ± 0.43^a μmol/g (w.w.)
  THR, cerebral concentration: 0.75 ± 0.24^a,e μmol/g (w.w.)
  TRP, cerebral concentration: 0.012 ± 0.007 µmol/g (w.w.)
  TYR, cerebral concentration: 0.21 ± 0.05^f μmol/g (w.w.)
  VAL, cerebral concentration: 0.040 ± 0.016^b μmol/g (w.w.)
